ChEMBL document CHEMBL1909616, “Identification of 4-quinolone derivatives as inhibitors of reactive oxygen species production from human umbilical vein endothelial cells” (Bioorg Med Chem Lett, 2011)
≈ marks a conversion by molar mass, not a printed value.

Key:
[1] = Aqueous solubility of the compound at pH 6.8; assay type: physicochemical; conditions: aqueous medium
[2] = Intrinsic clearance in human liver microsomes at 0.2 uM; assay type: ADME, Microsome
[3] = Intrinsic clearance in mouse liver microsomes at 0.2 uM; assay type: ADME, Microsome
[4] = Cmax in Sprague-Dawley rat at 3 mg/kg, po; assay type: ADME, organism-based; set-up: dose 3 mg/kg, route oral; conditions: in vivo
[5] = Tmax in Sprague-Dawley rat at 3 mg/kg, po; assay type: ADME, organism-based; set-up: dose 3 mg/kg, route oral; conditions: in vivo
[6] = AUC (0 to 24 hrs) in Sprague-Dawley rat at 0.3 mg/kg, iv; assay type: ADME, organism-based; set-up: time < 24 hr, dose 0.3 mg/kg, route intravenous; conditions: plasma
[7] = AUC (0 to 24 hrs) in Sprague-Dawley rat at 3 mg/kg, po; assay type: ADME, organism-based; set-up: time < 24 hr, dose 3 mg/kg, route oral; conditions: plasma
[8] = Oral availability in Sprague-Dawley rat at 3 mg/kg; assay type: ADME, organism-based; set-up: dose 3 mg/kg; conditions: in vivo
[9] = Volume of distribution at steady state in Sprague-Dawley rat at 0.3 mg/kg, iv; assay type: ADME, organism-based; set-up: dose 0.3 mg/kg, route intravenous; conditions: in vivo, read-out: Vdss
[10] = Total clearance in Sprague-Dawley rat at 0.3 mg/kg, iv; assay type: ADME, organism-based; set-up: dose 0.3 mg/kg, route intravenous; conditions: in vivo
[11] = Half life in Sprague-Dawley rat at 0.3 mg/kg, iv; assay type: ADME, organism-based; set-up: dose 0.3 mg/kg, route intravenous; conditions: in vivo
[12] = Cmax in Sprague-Dawley rat at 1 mg/kg, po; assay type: ADME, organism-based; set-up: dose 1 mg/kg, route oral; conditions: in vivo
[13] = Tmax in Sprague-Dawley rat at 1 mg/kg, po; assay type: ADME, organism-based; set-up: dose 1 mg/kg, route oral; conditions: in vivo
[14] = AUC (0 to 24 hrs) in Sprague-Dawley rat at 1 mg/kg, po; assay type: ADME, organism-based; set-up: time < 24 hr, dose 1 mg/kg, route oral; conditions: plasma
[15] = Oral availability in Sprague-Dawley rat at 1 mg/kg; assay type: ADME, organism-based; set-up: dose 1 mg/kg; conditions: in vivo

Structure (SMILES) | solubility [1] | CLint scaled at 0.2 µM [2] | CLint scaled at 0.2 µM [3] | also measured
CCCCCC/C=C/Cc1[nH]c2ccccc2c(=O)c1C | < 1 µM | > 1000 mL/min/kg | > 1000 mL/min/kg | 
CCCCCCCCCc1[nH]c2ccccc2c(=O)c1C | < 1 µM | > 1000 mL/min/kg | > 1000 mL/min/kg | 
COCCOCCCCc1[nH]c2ccccc2c(=O)c1C | ≥ 100 µM | 45 mL/min/kg | > 1000 mL/min/kg | 
Cc1c(COCCCCOCC2(C)COC2)[nH]c2ccccc2c1=O | ≥ 100 µM | 53 mL/min/kg | 295 mL/min/kg | 
Cc1c(COCCCCO)nc2ccccc2c1O | ≥ 100 µM |  |  | 
CCCCOc1cccc(OCc2[nH]c3ccccc3c(=O)c2C)c1 | < 1 µM | > 1000 mL/min/kg | > 1000 mL/min/kg | 
Cc1c(COc2cccc(OCCCC(F)(F)F)c2)nc2ccccc2c1O | < 1 µM | 257 mL/min/kg | > 1000 mL/min/kg | 
COC(C)(C)CCOc1cccc(OCc2[nH]c3ccccc3c(=O)c2C)c1 | 2 µM (≈ 0.763 µg/mL) | > 1000 mL/min/kg | > 1000 mL/min/kg | 
Cc1c(COc2cccc(OCC3CCOCC3)c2)[nH]c2ccccc2c1=O | 5 µM (≈ 1.9 µg/mL) | 214 mL/min/kg | 420 mL/min/kg | Cmax [4]: 196 ng/mL; Tmax [5]: 0.22 h; AUC(0-t) at 24 h [6]: 196 ng·h/mL; AUC(0-t) at 24 h [7]: 526 ng·h/mL; bioavailability [8]: 27%; Vd [9]: 2.3 L/kg; clearance [10]: 26 mL/min/kg; half-life [11]: 1.8 h
O=c1cc(COc2cccc(OCC3CCOCC3)c2)[nH]c2ccccc12 | 4 µM (≈ 1.46 µg/mL) | 78 mL/min/kg | 197 mL/min/kg | 
O=c1c(Cl)c(COc2cccc(OCC3CCOCC3)c2)[nH]c2ccccc12 | 2 µM (≈ 0.8 µg/mL) | 460 mL/min/kg | > 1000 mL/min/kg | 
CC(C)c1c(COc2cccc(OCC3CCOCC3)c2)[nH]c2ccccc2c1=O | 3 µM (≈ 1.22 µg/mL) |  |  | 
Cc1ccc2[nH]c(COc3cccc(OCC4CCOCC4)c3)c(C)c(=O)c2c1 | < 1 µM |  |  | 
COc1ccc2[nH]c(COc3cccc(OCC4CCOCC4)c3)c(C)c(=O)c2c1 | < 1 µM |  |  | 
Cc1c(COc2cccc(OCC3CCOCC3)c2)[nH]c2ccc(F)cc2c1=O | 2 µM (≈ 0.795 µg/mL) | 473 mL/min/kg | > 1000 mL/min/kg | 
Cc1c(COc2cccc(OCC3CCOCC3)c2)[nH]c2ccc(Cl)cc2c1=O | < 1 µM | > 1000 mL/min/kg | > 1000 mL/min/kg | 
Cc1c(COc2cccc(OCC3CCOCC3)c2)[nH]c2ccc(Br)cc2c1=O | < 1 µM |  |  | 
Cc1c(COc2cccc(OCC3CCOCC3)c2)[nH]c2ccc(C(=O)O)cc2c1=O | ≥ 100 µM | < 20 mL/min/kg | < 50 mL/min/kg | 
Cc1c(COc2cccc(OCC3CCOCC3)c2)[nH]c2ccc(-c3cccnc3)cc2c1=O | < 1 µM | 756 mL/min/kg | > 1000 mL/min/kg | 
Cc1c(COc2ccnc(OCC3CCOCC3)c2)[nH]c2ccccc2c1=O | 22 µM (≈ 8.37 µg/mL) | 95 mL/min/kg | 203 mL/min/kg | 
Cc1c(COc2cc(OCC3CCOCC3)ccn2)[nH]c2ccccc2c1=O | 36 µM (≈ 13.7 µg/mL) | 113 mL/min/kg | 312 mL/min/kg | 
Cc1c(COc2cc(OCCC(C)(C)O)ccn2)[nH]c2ccccc2c1=O | 85 µM (≈ 31.3 µg/mL) | 38 mL/min/kg | 112 mL/min/kg | Cmax [12]: 202 ng/mL; Tmax [13]: 4 h; AUC(0-t) at 24 h [6]: 897 ng·h/mL; AUC(0-t) at 24 h [14]: 2240 ng·h/mL; bioavailability [15]: 78%; Vd [9]: 1.4 L/kg; clearance [10]: 6 mL/min/kg; half-life [11]: 4.1 h
Cc1c(COc2cncc(OCC3CCOCC3)c2)[nH]c2ccccc2c1=O | ≥ 100 µM | 133 mL/min/kg | 238 mL/min/kg | 
Cc1c(COc2cncc(OCCC(C)(C)O)c2)[nH]c2ccccc2c1=O | ≥ 100 µM | 66 mL/min/kg | 225 mL/min/kg | 
Cc1c(COc2cccc(OCC3CCOCC3)n2)[nH]c2ccccc2c1=O | 3 µM (≈ 1.14 µg/mL) | 770 mL/min/kg | 984 mL/min/kg | 
